Positions of bridges follow the written chain, without caps; N, C: chain ends. Non-standard residues stand in square brackets, D forms with d. Residues, ends and D or L forms follow the SMILES beside them. *: point of attachment. Me3N+(CH2)2O(CH2)2O(CH2)2CO = C[N+](C)(C)CCOCCOCCC(=O)*; Trp(7-Me) = Cc1cccc2c(C[C@H](N)C(=O)O)c[nH]c12; X83 = CN(CCC[N+](C)(C)CCCC[N+](C)(C)C)CC*; CH2CH2OCH2CH2NMe3+ = C[N+](C)(C)CCOCC*; 2Nal = N[C@@H](Cc1ccc2ccccc2c1)C(=O)O; X81 = C[N+](C)(CCCC*)CC[N+]1(C)CCOCC1; AEF = NCCOc1ccc(C[C@H](N)C(=O)O)cc1; X75 = C[N+](C)(C)CCOCC[N+](C)(C)CC*; 3Pal = N[C@@H](Cc1cccnc1)C(=O)O; Lys(Me) = CNCCCC[C@H](N)C(=O)O; Pen = CC(C)(S)[C@H](N)C(=O)O; X66 = C[N+]1(CCC*)CCOCC1; Thp = NC1(C(=O)O)CCOCC1; X3 = C[N+](C)(C)CCCCC*; Sar = CNCC(=O)O
Test: Exposed Polar Surface Area (EPSA)
Assay type: physicochemical
Settings: SFC on Chirex 3014 column; sample 1 mM DMSO stock; read-out: EPSA
Procedure, shortened: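 Polarity descriptor in Å² derived from retention time using 8 calibration standards re-run every 20 compounds. Duplicate injections of 1 mM DMSO stock; linear 5–60% modifier gradient (20 mM ammonium formate in MeOH) with CO2 at 4 mL/min, 35 °C, on a Chirex 3014 column.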

Row | Compound | EPSA [A^2]
1 | CC(=O)N(C)CCCC[C@@H]1NC(=O)[C@H](Cc2c[nH]c3c(C)cccc23)NC(=O)[C@H]([C@@H](C)O)NC(=O)[C@H](CC(=O)N(C)C)NC(=O)[C@@H](NC(=O)CCOCCOCC[N+](C)(C)C)C(C)(C)SSC(C)(C)[C@@H](C(=O)N[C@@H](Cc2ccc(OCC[N+](C)(C)CCOCC[N+](C)(C)C)cc2)C(=O)N[C@@H](Cc2ccc3ccccc3c2)C(=O)NC2(C(=O)N[C@@H](CCCCN(C)C(C)=O)C(=O)N[C@@H](CC(N)=O)C(=O)N[C@@H](Cc3cccnc3)C(=O)N(C)CC(=O)N(C)C)CCOCC2)NC1=O [compound 264, cPEG3aCO-Pen(3)-N(N(Me)2)-T-7MeW-K(NMeAc)-Pen(3)-AEF(aPEG2a)-2Nal-THP-K(NMeAc)-N-3Pya-Sar-CON(Me)2] ({Me3N+(CH2)2O(CH2)2O(CH2)2CO}-[Pen]D(NMe2)T[Trp(7-Me)][Lys(Me)](Ac)[Pen]Y(X75)[2Nal][Thp][Lys(Me)](Ac)N[3Pal][Sar]-NMe2; disulfide 1-6) | 151
2 | CC(=O)N(C)CCCC[C@@H]1NC(=O)[C@H](Cc2c[nH]c3c(C)cccc23)NC(=O)[C@H]([C@@H](C)O)NC(=O)[C@H](CC(=O)N(C)C)NC(=O)[C@@H](NC(=O)CCOCCOCC[N+](C)(C)C)C(C)(C)SSC(C)(C)[C@@H](C(=O)N[C@@H](Cc2ccc(OCCCC[N+](C)(C)CC[N+]3(C)CCOCC3)cc2)C(=O)N[C@@H](Cc2ccc3ccccc3c2)C(=O)NC2(C(=O)N[C@@H](CCCCN(C)C(C)=O)C(=O)N[C@@H](CC(N)=O)C(=O)N[C@@H](Cc3cccnc3)C(=O)N(C)CC(=O)N(C)C)CCOCC2)NC1=O [compound 271, cPEG3aCO-Pen(3)-N(N(Me)2)-T-7MeW-K(NMeAc)-Pen(3)-morfTMA4F-2Nal-THP-K(NMeAc)-N-3Pya-Sar-CON(Me)2] ({Me3N+(CH2)2O(CH2)2O(CH2)2CO}-[Pen]D(NMe2)T[Trp(7-Me)][Lys(Me)](Ac)[Pen]Y(X81)[2Nal][Thp][Lys(Me)](Ac)N[3Pal][Sar]-NMe2; disulfide 1-6) | 159
3 | CC(=O)N(C)CCCC[C@@H]1NC(=O)[C@H](Cc2c[nH]c3c(C)cccc23)NC(=O)[C@H]([C@@H](C)O)NC(=O)[C@H](CC(=O)N(C)C)NC(=O)[C@@H](NC(=O)CCOCCOCC[N+](C)(C)C)C(C)(C)SSC(C)(C)[C@@H](C(=O)N[C@@H](Cc2ccc(OCCC[N+]3(C)CCOCC3)cc2)C(=O)N[C@@H](Cc2ccc3ccccc3c2)C(=O)NC2(C(=O)N[C@@H](CCCCN(C)C(C)=O)C(=O)N[C@@H](CC(N)=O)C(=O)N[C@@H](Cc3cccnc3)C(=O)N(C)CC(=O)N(C)C)CCOCC2)NC1=O [compound 274, cPEG3aCO-Pen(3)-N(N(Me)2)-T-7MeW-K(NMeac)-Pen(3)-MMoPF-2Nal-THP-K(NMeAc)-N-3Pya-Sar-CON(Me)2] ({Me3N+(CH2)2O(CH2)2O(CH2)2CO}-[Pen]D(NMe2)T[Trp(7-Me)][Lys(Me)](Ac)[Pen]Y(X66)[2Nal][Thp][Lys(Me)](Ac)N[3Pal][Sar]-NMe2; disulfide 1-6) | 153
4 | CC(=O)N[C@@H]1C(=O)N[C@@H](CC(=O)N(C)C)C(=O)N[C@@H]([C@@H](C)O)C(=O)N[C@@H](Cc2c[nH]c3c(C)cccc23)C(=O)N[C@@H](CCCCN(C)C(C)=O)C(=O)N[C@H](C(=O)N[C@@H](Cc2ccc(OCCCCC[N+](C)(C)C)cc2)C(=O)N[C@@H](Cc2ccc3ccccc3c2)C(=O)NC2(C(=O)N[C@@H](COCCOCC[N+](C)(C)C)C(=O)N[C@@H](CC(N)=O)C(=O)N[C@@H](Cc3cccnc3)C(=O)N(C)CC(=O)N(C)C)CCOCC2)C(C)(C)SSC1(C)C [compound 275, MeCO-Pen(3)-N(N(Me)2)-T-7MeW-K(NMeAc)-Pen(3)-TMAPF-2Nal-THP-APEG2Ser-N-3Pya-Sar-CON(Me)2] (Ac-[Pen]D(NMe2)T[Trp(7-Me)][Lys(Me)](Ac)[Pen]Y(X3)[2Nal][Thp]S(CH2CH2OCH2CH2NMe3+)N[3Pal][Sar]-NMe2; disulfide 1-6) | 149
5 | CC(=O)N(C)CCCC[C@@H]1NC(=O)[C@H](Cc2c[nH]c3c(C)cccc23)NC(=O)[C@H]([C@@H](C)O)NC(=O)[C@H](CC(=O)N(C)C)NC(=O)[C@@H](NC(=O)CCOCCOCC[N+](C)(C)C)C(C)(C)SSC(C)(C)[C@@H](C(=O)N[C@@H](Cc2ccc(OCCN(C)CCC[N+](C)(C)CCCC[N+](C)(C)C)cc2)C(=O)N[C@@H](Cc2ccc3ccccc3c2)C(=O)NC2(C(=O)N[C@@H](CCCCN(C)C(C)=O)C(=O)N[C@@H](CC(N)=O)C(=O)N[C@@H](Cc3cccnc3)C(=O)N(C)CC(=O)N(C)C)CCOCC2)NC1=O [compound 277, cPEG3aCO-Pen(3)-N(N(Me)2)-T-7MeW-K(NMeAc)-Pen(3)-AEF(SPD)-2Nal-THP-K(NMeAc)-N-3Pya-Sar-CON(Me)2] ({Me3N+(CH2)2O(CH2)2O(CH2)2CO}-[Pen]D(NMe2)T[Trp(7-Me)][Lys(Me)](Ac)[Pen]Y(X83)[2Nal][Thp][Lys(Me)](Ac)N[3Pal][Sar]-NMe2; disulfide 1-6) | 154
6 | CC(=O)NCCCC[C@@H]1NC(=O)[C@H](Cc2c[nH]c3c(C)cccc23)NC(=O)[C@H]([C@@H](C)O)NC(=O)[C@H](CC(=O)N(C)C)NC(=O)[C@@H](NC(C)=O)C(C)(C)SSC(C)(C)[C@@H](C(=O)N[C@@H](Cc2ccc(OCCN)cc2)C(=O)N[C@@H](Cc2ccc3ccccc3c2)C(=O)NC2(C(=O)N[C@@H](CCCCNC(C)=O)C(=O)N[C@@H](CC(N)=O)C(=O)N[C@@H](Cc3cccnc3)C(=O)N(C)CC(N)=O)CCOCC2)NC1=O [compound 279, MeCO-Pen(3)-N(N(Me)2)-T-7MeW-K(Ac)-Pen(3)-AEF-2Nal-THP-K(Ac)-N-3Pya-Sar-CONH2] (Ac-[Pen]D(NMe2)T[Trp(7-Me)]K(Ac)[Pen][AEF][2Nal][Thp]K(Ac)N[3Pal][Sar]-NH2; disulfide 1-6) | 163
7 | CC(=O)N[C@@H]1C(=O)N[C@@H](CC(N)=O)C(=O)N[C@@H]([C@@H](C)O)C(=O)N[C@@H](Cc2c[nH]c3c(C)cccc23)C(=O)N[C@@H](CCCCN(C)C(C)=O)C(=O)N[C@H](C(=O)N[C@@H](Cc2ccc(OCCN)cc2)C(=O)N[C@@H](Cc2ccc3ccccc3c2)C(=O)NC2(C(=O)N[C@@H](CCCCN(C)C(C)=O)C(=O)N[C@@H](CC(N)=O)C(=O)N[C@@H](Cc3cccnc3)C(=O)N(C)CC(N)=O)CCOCC2)C(C)(C)SSC1(C)C [compound 280] (Ac-[Pen]NT[Trp(7-Me)][Lys(Me)](Ac)[Pen][AEF][2Nal][Thp][Lys(Me)](Ac)N[3Pal][Sar]-NH2; disulfide 1-6 (inferred)) | 167
8 | CC(=O)NCCCC[C@@H]1NC(=O)[C@H](Cc2c[nH]c3c(C)cccc23)NC(=O)[C@H]([C@@H](C)O)NC(=O)[C@H](CC(N)=O)NC(=O)[C@@H](NC(C)=O)C(C)(C)SSC(C)(C)[C@@H](C(=O)N[C@@H](Cc2ccc(OCCN)cc2)C(=O)N[C@@H](Cc2ccc3ccccc3c2)C(=O)NC2(C(=O)N[C@@H](CCCCNC(C)=O)C(=O)N[C@@H](CC(N)=O)C(=O)N[C@@H](Cc3cccnc3)C(=O)N(C)CC(=O)N(C)C)CCOCC2)NC1=O [compound 282] (Ac-[Pen]NT[Trp(7-Me)]K(Ac)[Pen][AEF][2Nal][Thp]K(Ac)N[3Pal][Sar]-NMe2; disulfide 1-6) | 163
